Assay results reported in patent US20150080438A1, “6,7-Dihydro-5H-benzo[7]annulene derivatives, processes for their preparation, pharmaceutical products comprising them and their use for preparing medicaments” (Bayer Intellectual Property GmbH, priority 2011, published 2015).

What was measured:
[1] = tested on: ovarian estradiol synthesis; assay: Stimulation of ovarian oestrogen synthesis (HPG axis) in hormonally intact adult rats; assay type: in vivo, rat; conditions: 3 mg/kg daily for 10 days, quotient of peripheral estradiol values after and before treatment
From the text: The clinical use both of pure anti-oestrogens and of various SERMs for the treatment of premenopausal women is limited by their property of stimulating the ovaries through activation of the hypothalamic-pituitary-gonadal axis (HPG axis), which leads to the increase in peripheral estradiol levels (Palomba, S., Orio, F., Jr., Morelli, M., Russo, T., Pellicano, M., Zupi, E., Lombardi, G., Nappi, C., Panici, P. L., and Zullo, F. (2002). Raloxifene administration in premenopausal women with uterine leiomyomas: a pilot study. J Clin Endocrinol Metab 87, 3603-3608). This stimulation of the HPG axis is associated with penetration of the blood-brain barrier and penetration of the brain. To investigate the ovary-stimulating properties of the claimed pharmacological compounds, hormonally intact adult rats were treated with the substances daily for a period of 10 days. The study end point is the quotient of peripheral estradiol values after and before treatment.
Selected claimed pharmacological substances were investigated as described for their stimulating action on the HPG axis or ovarian estradiol synthesis. The selected substances show markedly less stimulation of the ovaries than the control compound raloxifene at equal dosages (cf. Table 5).

oestrogen receptor (ER) = target: T1, oestrogen receptor (ER) (Homo sapiens, UniProt P03372); assay: Anti-oestrogenic action in MVLN cells (inhibition of estradiol-induced luciferase, transactivation antagonism); assay type: cell-based; conditions: inhibition of estradiol-induced luciferase activity, read-out: Anti-oestrogenic action in vitro: MVLN transactivation antagonism IC50
T1 construct: These MVLN cells express, along with the functional oestrogen receptor (ER), a reporter construct; endogenous in cells; host or cells: MVLN cells (MCF7 derivative with ER-responsive luciferase reporter)
T1 sequence (P03372 1-595): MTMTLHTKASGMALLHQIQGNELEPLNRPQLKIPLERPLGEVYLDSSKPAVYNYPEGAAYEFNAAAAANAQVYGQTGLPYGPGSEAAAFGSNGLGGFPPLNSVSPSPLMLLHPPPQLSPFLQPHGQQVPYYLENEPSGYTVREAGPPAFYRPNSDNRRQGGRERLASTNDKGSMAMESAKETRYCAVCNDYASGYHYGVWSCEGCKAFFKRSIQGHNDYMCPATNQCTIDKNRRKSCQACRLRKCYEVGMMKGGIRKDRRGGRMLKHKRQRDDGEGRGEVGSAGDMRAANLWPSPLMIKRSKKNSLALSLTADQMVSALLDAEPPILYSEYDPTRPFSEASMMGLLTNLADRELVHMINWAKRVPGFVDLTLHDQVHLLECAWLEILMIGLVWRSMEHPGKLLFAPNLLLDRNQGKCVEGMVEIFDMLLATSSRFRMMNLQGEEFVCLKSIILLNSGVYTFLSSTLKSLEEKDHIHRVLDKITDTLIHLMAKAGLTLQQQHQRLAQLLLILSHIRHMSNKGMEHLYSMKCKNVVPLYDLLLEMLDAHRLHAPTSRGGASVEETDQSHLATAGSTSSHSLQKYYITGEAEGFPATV
Procedure, shortened: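 MCF7-derived MVLN cells carrying an ER-driven luciferase reporter; test compounds applied with estradiol, and anti-oestrogenic action scored as inhibition of the estradiol-induced luciferase signal.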

[2] = tested on: uterus growth induced by 17β-estradiol; assay: Anti-uterus growth test in the adult rat; assay type: in vivo; conditions: ovariectomized adult rat, percentage inhibition of uterus growth; for inhibition in vivo at 0.3 mg/kg: sc, 0.3 mg/kg s.c. d1-d3 with 1.5 μg/kg/day 17β-estradiol, read-out: Anti-oestrogenic activity in vivo in % at a dose of 0.3 mg/kg (rat)
From the text: The uterus of oestrogen-substituted rats can be used as a test model for detecting a direct action of substances with anti-oestrogenic properties. The parameter of oestrogenic action is estradiol-induced uterus growth in rats, which is inhibited by simultaneous administration of a substance with anti-oestrogenic action. The experimental animals (n=5-6 animals/group) were ovariectomized before the start of the test, to rule out the influence of endogenous oestrogens. After a phase of 6 to 10 days, the test substances are administered s.c. on 3 consecutive days (d1-d3) in combination with a substitution dose of 1.5 μg/kg/day of 17β-estradiol. 17β-estradiol alone serves as positive control, and the excipients serve as negative control. On day 4 (d4) the animals are killed, and the uteri and vaginae are removed and weighed. The organ weights are converted to mg/100 g body weight, then the mean value and the standard deviation are calculated for each dosage. The inhibition of uterus or vaginal growth induced by 17β-estradiol is shown as percentage inhibition. The selected claimed substances were investigated in adult female rats as described for their anti-oestrogenic, inhibitory action on the weight of the uterus. At the dosage used, the substances show a marked anti-oestrogenic action in vivo (Table 3 and Table 4).

| SMILES | Stimulation of ovarian oestrogen synthesis: factor at a dose of 3 mg/kg rat [1] | IC50 (oestrogen receptor (ER)) | inhibition in vivo at 0.3 mg/kg [2] | Anti-oestrogenic activity in vivo in % at a dose of 1 mg/kg (rat) ([2]; 1 mg/kg s.c. d1-d3 with 1.5 μg/kg/day 17β-estradiol) |
| --- | --- | --- | --- | --- |
| CN(CCCCCC1=C(c2cccc(O)c2)CCCc2cc(O)ccc21)CCCCS(=O)(=O)CCCC(F)(F)C(F)(F)F [Example 7, 8-(3-Hydroxyphenyl)-9-[5-(methyl{4-[(4,4,5,5,5-pentafluoropentyl)sulphonyl]butyl}amino)pentyl]-6,7-dihydro-5H-benzo[7]annulen-3-ol] | 1.8 | 5 nM | 31% | – |
| CN(CCCCCC1=C(c2ccccc2)CCCc2cc(O)ccc21)CCC[S+]([O-])CCCC(F)(F)C(F)(F)F (racemic) [Example 2, 9-[5-(Methyl{3-[(RS)-(4,4,5,5,5-pentafluoropentyl)sulphinyl]propyl}amino)pentyl]-8-phenyl-6,7-dihydro-5H-benzo[7]annulen-3-ol] | 1.8 | 8 nM | 51% | 94% |
| CN(CCCCCCC1=C(c2ccc(O)cc2)CCCc2cc(O)ccc21)CCCS(=O)(=O)CCCC(F)(F)C(F)(F)F [Example 27, 8-(4-Hydroxyphenyl)-9-[6-(methyl{3-[(4,4,5,5,5-pentafluoropentyl)sulphonyl]propyl}amino)hexyl]-6,7-dihydro-5H-benzo[7]annulen-3-ol] | 2.4 | 1 nM | 80% | – |

Now from value to compound, other results behind:

| Stimulation of ovarian oestrogen synthesis: factor at a dose of 3 mg/kg rat [1] | IC50 (oestrogen receptor (ER)) | SMILES | inhibition in vivo at 0.3 mg/kg [2] | Anti-oestrogenic activity in vivo in % at a dose of 1 mg/kg (rat) ([2]; 1 mg/kg s.c. d1-d3 with 1.5 μg/kg/day 17β-estradiol) |
| --- | --- | --- | --- | --- |
| 1.1 | 3 nM | CN(CCCCCCC1=C(c2ccc(F)c(O)c2)CCCc2cc(O)ccc21)CCCS(=O)(=O)CCCC(F)(F)C(F)(F)F [Example 29, 8-(4-Fluoro-3-hydroxyphenyl)-9-[6-(methyl{3-[(4,4,5,5,5-pentafluoropentyl)sulphonyl]propyl}amino)hexyl]-6,7-dihydro-5H-benzo[7]annulen-3-ol] | 61% | – |
| 1.7 | 2 nM | CN(CCCCCC1=C(c2ccc(O)c(F)c2)CCCc2cc(O)ccc21)CCCS(=O)(=O)CCCC(F)(F)C(F)(F)F [Example 38, 8-(3-Fluoro-4-hydroxyphenyl)-9-[5-(methyl{3-[(4,4,5,5,5-pentafluoropentyl)sulphonyl]propyl}amino)pentyl]-6,7-dihydro-5H-benzo[7]annulen-3-ol] | 57% | – |
